# Results as given in patent publication US8623860B2, “Azetidine derivatives, pharmaceutical compositions and uses thereof” (Boehringer Ingelheim International GmbH, priority 2011, dated 2014).
# Target: human ACC2 (Homo sapiens (Human), UniProt O00763)
# Assay: ACC2 assay, spectrophotometric 384 well assay (NADH-linked, coupled lactate dehydrogenase/pyruvate kinase reaction)
# Assay type: biochemical
# Conditions: hACC2 construct lacking the 128 N-terminal amino acids; 25° C., 340 nm, 15 minutes
# Description: Spectrophotometric 384 Well Assay
# Malonyl CoA formation by acetyl CoA carboxylases is stoichometrically linked to the consumption of ATP. ACC2 activity is measured in a NADH-linked kinetic method measuring ADP generated during the ACC reaction using a coupled lactate dehydrogenase/pyruvate kinase reaction.
# For biological testing, a human ACC2 construct which lacks the 128 amino acids at the N-terminus for increased solubility (nt 385-6966 in Genbank entry AJ575592) is cloned. The protein is then expressed in insect cells using a baculoviral expression system. Protein purification is performed by anion exchange.
# All compounds are dissolved in dimethyl sulfoxide (DMSO) to a concentration of 10 mM.
# Assay reactions are then carried out in 384-well plates, with hACC2 in an appropriate dilution and at final assay concentrations (f.c.) of 100 mM Tris (pH 7.5), 10 mM trisodium citrate, 25 mM KHCC3, 10 mM MgCl2, 0.5 mg/ml BSA, 3.75 mM reduced L-glutathione, 15 U/ml lactate dehydrogenase, 0.5 mM phosphoenolpyruvate, 15 U/ml pyruvate kinase, compounds at different concentrations at final DMSO concentrations of 1%.
# The enzymatic reaction is then started by addition of a mixture of NADH, acetyl Coenzyme A (both 200 μM f.c.) and ATP (500 uM f.c.). The decrease of the optical density (slope S) is then determined at 25° C. at a wavelength of 340 nm over 15 minutes in a spectrophotometric reader.
# Each assay microtiter plate contains wells with vehicle instead of compound as controls for the non-inhibited enzyme (100% CTL; ‘HIGH’) and wells without acetyl-CoA as controls for non-specific NADH degradation (0% CTL; ‘LOW’).
# The slope S is used for calculation of % CTL=(S(compound)−S(‘LOW’))/(S(‘HIGH’)−S(‘LOW’))*100. Compounds will give values between 100% CTL (no inhibition) and 0% CTL (complete inhibition).
# For IC50 value determination, the sample slope in the presence of the test compound after subtraction of the low controls (S(compound)−S(‘LOW’)) are used.
# An IC50 value is derived from the compound slopes at different dosages after subtraction of the low controls (S(compound)−S(‘LOW’)) by non-linear regression curve fitting (equation y=(A+((B−A)/(1+((C/x)^D))))).
# In the following table the activity expressed as IC50 (μM) of compounds according to the invention is presented wherein the IC50 values are determined in the ACC2 assay as described hereinbefore. The term “Ex.” refers to the example numbers according to the following experimental section.
# Chain of human ACC2 (O00763 129-2458): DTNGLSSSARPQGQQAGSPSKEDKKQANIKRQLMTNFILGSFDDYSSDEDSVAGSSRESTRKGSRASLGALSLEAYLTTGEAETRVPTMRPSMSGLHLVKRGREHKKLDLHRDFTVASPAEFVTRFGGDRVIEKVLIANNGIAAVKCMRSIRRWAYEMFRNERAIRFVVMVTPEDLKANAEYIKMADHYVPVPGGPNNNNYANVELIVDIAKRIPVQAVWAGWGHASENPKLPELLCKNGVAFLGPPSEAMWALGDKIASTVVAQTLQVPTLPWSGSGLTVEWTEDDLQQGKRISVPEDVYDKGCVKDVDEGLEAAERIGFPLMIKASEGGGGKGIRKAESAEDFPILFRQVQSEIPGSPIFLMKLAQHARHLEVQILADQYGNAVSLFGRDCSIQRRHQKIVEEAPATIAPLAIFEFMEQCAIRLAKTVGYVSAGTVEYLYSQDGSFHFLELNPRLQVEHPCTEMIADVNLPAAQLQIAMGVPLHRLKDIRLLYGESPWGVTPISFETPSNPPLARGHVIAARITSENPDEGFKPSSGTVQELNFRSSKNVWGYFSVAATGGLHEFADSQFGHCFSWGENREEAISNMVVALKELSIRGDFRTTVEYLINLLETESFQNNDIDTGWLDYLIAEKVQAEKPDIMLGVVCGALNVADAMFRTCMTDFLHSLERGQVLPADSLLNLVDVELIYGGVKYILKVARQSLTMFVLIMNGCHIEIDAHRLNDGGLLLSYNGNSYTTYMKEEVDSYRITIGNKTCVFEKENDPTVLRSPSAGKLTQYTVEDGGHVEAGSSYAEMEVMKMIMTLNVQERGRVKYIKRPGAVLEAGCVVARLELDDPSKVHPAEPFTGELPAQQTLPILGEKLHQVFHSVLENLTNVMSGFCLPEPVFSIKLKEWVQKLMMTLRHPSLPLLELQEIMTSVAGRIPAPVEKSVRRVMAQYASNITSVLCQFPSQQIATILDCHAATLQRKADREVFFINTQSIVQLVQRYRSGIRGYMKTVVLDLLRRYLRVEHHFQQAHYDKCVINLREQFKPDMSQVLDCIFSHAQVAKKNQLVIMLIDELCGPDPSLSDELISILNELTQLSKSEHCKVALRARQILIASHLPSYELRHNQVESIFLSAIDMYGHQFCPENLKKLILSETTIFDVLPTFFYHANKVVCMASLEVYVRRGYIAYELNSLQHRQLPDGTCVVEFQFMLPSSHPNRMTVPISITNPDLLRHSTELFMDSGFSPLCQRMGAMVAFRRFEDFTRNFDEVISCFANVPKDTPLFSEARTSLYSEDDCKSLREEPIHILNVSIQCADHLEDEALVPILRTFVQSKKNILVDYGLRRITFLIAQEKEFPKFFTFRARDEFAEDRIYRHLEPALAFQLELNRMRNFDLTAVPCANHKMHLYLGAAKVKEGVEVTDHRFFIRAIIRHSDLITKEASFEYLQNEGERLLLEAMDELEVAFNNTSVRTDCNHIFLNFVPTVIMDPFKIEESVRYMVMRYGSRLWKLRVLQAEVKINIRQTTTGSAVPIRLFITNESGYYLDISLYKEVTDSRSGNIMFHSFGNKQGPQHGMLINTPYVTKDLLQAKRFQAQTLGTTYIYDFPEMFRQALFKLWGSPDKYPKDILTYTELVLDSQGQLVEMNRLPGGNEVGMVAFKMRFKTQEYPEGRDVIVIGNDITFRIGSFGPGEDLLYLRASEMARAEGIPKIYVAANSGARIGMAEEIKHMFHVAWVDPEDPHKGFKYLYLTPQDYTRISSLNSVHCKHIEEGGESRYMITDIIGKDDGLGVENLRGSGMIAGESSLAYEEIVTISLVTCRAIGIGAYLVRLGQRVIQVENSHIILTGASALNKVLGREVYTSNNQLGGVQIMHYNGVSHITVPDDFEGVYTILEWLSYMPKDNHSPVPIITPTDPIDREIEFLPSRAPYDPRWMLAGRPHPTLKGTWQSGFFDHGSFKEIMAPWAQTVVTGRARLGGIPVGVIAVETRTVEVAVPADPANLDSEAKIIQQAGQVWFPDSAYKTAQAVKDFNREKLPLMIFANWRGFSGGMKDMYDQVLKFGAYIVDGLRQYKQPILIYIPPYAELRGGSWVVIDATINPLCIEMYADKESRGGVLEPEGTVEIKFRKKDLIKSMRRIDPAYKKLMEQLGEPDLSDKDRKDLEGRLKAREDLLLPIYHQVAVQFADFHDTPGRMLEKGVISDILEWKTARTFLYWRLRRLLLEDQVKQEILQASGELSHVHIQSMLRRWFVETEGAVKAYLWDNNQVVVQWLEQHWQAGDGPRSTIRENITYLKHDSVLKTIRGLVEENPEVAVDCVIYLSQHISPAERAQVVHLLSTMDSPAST
row,Compound,IC50 [µM]
1,Cc1ccc(C(=O)N[C@@H](C)c2ccc(C3CN(c4ccc(OCC5CC5)cc4)C3)cc2)o1 [Example 3.43],2.57
2,C[C@H](NC(=O)c1cn[nH]c1)c1ccc(C2CN(c3ccc(OCC4CC4)cc3)C2)cc1 [Example 3.02],1.06
3,Cc1ncc(C(=O)N[C@@H](C)c2ccc(C3CN(c4ccc(OCC5CC5)cc4)C3)cc2)s1 [Example 3.40],1.31
4,CC(=O)NC(C)Cc1ccc(C2CN(c3ccc(OC4CCC4)cc3)C2)cc1 (stereo not shown) [Example 1.02],0.26
5,CC(=O)Nc1cncc(C(=O)N[C@@H](C)c2ccc(C3CN(c4ccc(OCC5CC5)cc4)C3)cc2)c1 [Example 3.51],2.18
6,C[C@H](NC(=O)CO)c1ccc(C2CN(c3ccc(OCC4CC4)cc3)C2)cc1 [Example 3.82],1.62
7,C[C@H](NC(=O)c1cnco1)c1ccc(C2CN(c3ccc(OCC4CC4)cc3)C2)cc1 [Example 3.52],0.71
8,C[C@H](NC(=O)c1cnn(C)c1)c1ccc(C2CN(c3ccc(OCC4CC4)cc3)C2)cc1 [Example 3.90],0.62
9,CC(Cc1ccc(C2CN(c3ccc(OCC4CC4)cc3)C2)cc1)NC(=O)c1ccon1 (stereo not shown) [Example 3.77],1.7
10,CCOc1ccc(N2CC(c3ccc(CCC(C)NC(C)=O)cc3)C2)cc1 (stereo not shown) [Example 1.16],0.41
11,CC(Cc1ccc(C2CN(c3ccc(OCC4CC4)cc3)C2)cc1)NC(=O)C1(C#N)CC1 (stereo not shown) [Example 3.07],2.58
12,C[C@H](NC(=O)C1CC=CC1)c1ccc(C2CN(c3ccc(OCC4CC4)cc3)C2)cc1 [Example 3.03],0.38
13,CC(=O)N[C@@H](C)c1ccc(C2CN(c3ccc4c(c3)OCCCO4)C2)cc1 [Example 1.29],0.78
14,CC(=O)NC(C)Cc1ccc(C2CN(c3ccc(OCC4CC4)cc3)C2)cc1 (stereo not shown) [Example 1.04],0.63
15,CCOc1ccc(N2CC(c3ccc(C(C)NC(C)=O)cc3)C2)cc1 (stereo not shown) [Example 1.19],1.13
16,CC(=O)N[C@@H](C)c1ccc(C2CN(c3nnc(-c4ccccc4)s3)C2)cc1 [Example 2.11],7.76
17,CC(=O)NC(C)Cc1ccc(C2CN(c3ccc4c(c3)OCCO4)C2)cc1 (stereo not shown) [Example 1.13],0.95
18,Cc1nocc1C(=O)N[C@@H](C)c1ccc(C2CN(c3ccc(OCC4CC4)cc3)C2)cc1 [Example 3.87],0.47
19,CC(F)C(=O)N[C@@H](C)c1ccc(C2CN(c3ccc(OCC4CC4)cc3)C2)cc1 (stereo partly shown) [Example 3.55],1.33
20,CC(=O)N[C@@H](C)c1ccc(C2CN(c3ccc(OC4CCC4)cc3)C2)cc1 [Example 1.24],1.63

row,Compound,IC50 [µM]
1,CCCOc1ccc(N2CC(c3ccc(CC(C)NC(C)=O)cc3)C2)cn1 (stereo not shown) [Example 1.05],0.9
2,CC(=O)Nc1nc(C(=O)N[C@@H](C)c2ccc(C3CN(c4ccc(OCC5CC5)cc4)C3)cc2)co1 [Example 3.54],2.36
3,CC(=O)N[C@@H](C)c1ccc(C2CN(c3ncc4nc(-c5ccsc5)oc4n3)C2)cc1 [Example 2.13],0.69
4,CC(=O)N[C@@H](C)c1ccc(C2CN(c3ncnc(OCC4CC4)c3F)C2)cc1 [Example 5.7],0.4
5,CC(=O)NC(C)Cc1ccc(C2CN(c3cnc(NC4CCC4)nc3)C2)cc1 (stereo not shown) [Example 1.07],5.63
6,COC1CC(C(=O)N[C@@H](C)c2ccc(C3CN(c4ccc(OCC5CC5)cc4)C3)cc2)C1 (stereo partly shown) [Example 3.23],2.65
7,CC(=O)NC(C)c1ccc(C2CN(c3ccc(OC4CCCC4)cc3)C2)cc1 (stereo not shown) [Example 1.21],0.34
8,CC(=O)N[C@@H](C)c1ccc(C2CN(c3ccnc(OCC4CC4)c3)C2)cc1 [Example 5.3],1.59
9,CC(Cc1ccc(C2CN(c3ccc(OCC4CC4)cc3)C2)cc1)NC(=O)CCC#N (stereo not shown) [Example 3.18],3.05
10,CCOc1cccc(N2CC(c3ccc([C@H](C)NC(C)=O)cc3)C2)c1 [Example 1.28],0.68
11,C[C@H](NC(=O)Cc1cccnc1)c1ccc(C2CN(c3ccc(OCC4CC4)cc3)C2)cc1 [Example 3.24],1.67
12,CC(C#N)C(=O)N[C@@H](C)c1ccc(C2CN(c3ccc(OCC4CC4)cc3)C2)cc1 (stereo partly shown) [Example 3.28],1.21
13,CCCOc1ncnc(N2CC(c3ccc([C@H](C)NC(C)=O)cc3)C2)c1Cl [Example 5.4],0.68
14,C[C@H](NC(=O)c1ccon1)c1ccc(C2CN(c3ccc4c(c3)OCCO4)C2)cc1 [Example 3.73],2.49
15,CC(=O)Nc1cc(C(=O)N[C@@H](C)c2ccc(C3CN(c4ccc(OCC5CC5)cc4)C3)cc2)ccn1 [Example 3.59],0.78
16,CC(=O)N[C@@H](C)c1ccc(C2CN(c3ncnc(OCC4CC4)c3Cl)C2)cc1 [Example 5.5],0.38
17,Cc1oncc1C(=O)NC(C)Cc1ccc(C2CN(c3ccc(OCC4CC4)cc3)C2)cc1 (stereo not shown) [Example 3.74],0.96
18,Cc1nocc1C(=O)NC(C)Cc1ccc(C2CN(c3ccc(OCC4CC4)cc3)C2)cc1 (stereo not shown) [Example 3.17],2.79
19,CC(=O)NC(C)Cc1ccc(C2CN(c3ccc(-c4ccc(Cl)cc4)nn3)C2)cc1 (stereo not shown) [Example 2.03],7.02
20,C[C@H](NC(=O)CF)c1ccc(C2CN(c3ccc(OCC4CC4)cc3)C2)cc1 [Example 3.89],0.55

row,Compound,IC50 [µM]
1,C[C@H](NC(=O)C1(C)CC1)c1ccc(C2CN(c3ccc(OCC4CC4)cc3)C2)cc1 [Example 3.26],2.42
2,CCC(=O)N[C@@H](C)c1ccc(C2CN(c3ccc4c(c3)OCCO4)C2)cc1 [Example 3.68],1
3,CC(Cc1ccc(C2CN(c3ccc(OCC4CC4)cc3)C2)cc1)NC(=O)CF (stereo not shown) [Example 3.14],1.77
4,C[C@H](NC(=O)Cn1cncn1)c1ccc(C2CN(c3ccc(OCC4CC4)cc3)C2)cc1 [Example 3.29],1.67
5,CCOc1ccc(N2CC(c3ccc(CC(C)NC(C)=O)cc3)C2)cc1 (stereo not shown) [Example 1.08],0.65
6,CC(=O)NC(C)Cc1ccc(C2CN(c3ccc(C(C)(C)C)cc3)C2)cc1 (stereo not shown) [Example 1.09],2.73
7,CC(=O)Nc1cc(C(=O)N[C@@H](C)c2ccc(C3CN(c4ccc5c(c4)OCCO5)C3)cc2)ccn1 [Example 3.69],2.4
8,CCOCC(=O)N[C@@H](C)c1ccc(C2CN(c3ccc(OCC4CC4)cc3)C2)cc1 [Example 3.22],2.58
9,C[C@H](NC(=O)C(C)(F)F)c1ccc(C2CN(c3ccc(OCC4CC4)cc3)C2)cc1 [Example 3.88],0.53
10,C[C@H](NC(=O)C1CCCCO1)c1ccc(C2CN(c3ccc(OCC4CC4)cc3)C2)cc1 (stereo partly shown) [Example 3.27],2.86
11,CC(=O)N[C@@H](C)c1ccc(C2CN(c3cccc(C(F)(F)F)n3)C2)cc1 [Example 2.10],0.47
12,CC(C)C(=O)N[C@@H](C)c1ccc(C2CN(c3ccc(OCC4CC4)cc3)C2)cc1 [Example 3.32],1.76
13,CC(=O)N[C@@H](C)c1ccc(C2CN(c3ncc4nc(-c5ccccc5)oc4n3)C2)cc1 [Example 2.07],0.34
14,CC(=O)NC(C)Cc1ccc(C2CN(c3ncc(OCC4CC4(F)F)cc3F)C2)cc1 (stereo not shown) [Example 1.30],0.74
15,C[C@H](NC(=O)C1CC1)c1ccc(C2CN(c3ccc(OCC4CC4)cc3)C2)cc1 [Example 3.56],0.7
16,C=CCC(=O)N[C@@H](C)c1ccc(C2CN(c3ccc(OCC4CC4)cc3)C2)cc1 [Example 3.91],0.63
17,C[C@H](NC(=O)c1ccns1)c1ccc(C2CN(c3ccc(OCC4CC4)cc3)C2)cc1 [Example 3.39],1.52
18,C[C@H](NC(=O)c1ccon1)c1ccc(C2CN(c3ccc(OCC4CC4)cc3)C2)cc1 [Example 3.81],1.4
